Reference: patent US20230159511A1, “TETRAHYDROISOQUINOLINE COMPOUNDS AS NRF2 ACTIVATORS” (C4X Discovery Limited, priority 2020, published 2023)
Read-outs that look alike come from different tables or passages of the source.

Key:
[1] = target: T1, human KEAP1 (N-term, residues 321-609) (Homo sapiens, UniProt Q14145); test: KEAP1 Kelch Fluorescence Polarization (FP) Assay; format: binding; conditions: inhibition of Kelch domain-NRF2 interaction; 2 nM FITC-labelled NRF2 peptide, 25 nM KEAP1, 1 h room temperature; compounds below 10 nM cannot be differentiated
T1 construct: human KEAP1 (N-term, residues 321-609)
Method in brief: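 Compounds in 12-point curves (top 10 μM) displaced 2 nM FITC-labelled NRF2 peptide from 25 nM KEAP1 residues 321-609 over 1 h at room temperature. Polarization read at 470/530 nm, window set by 50 μM unlabelled peptide; four-parameter fit gave IC50, floor 10 nM.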

[2] = tested on: NRF2 mediated gene NAD(P)H:quinone acceptor oxidoreductase 1 (NQO1) in BEAS-2B cells; test: Beas2B NQO1 mRNA Cell Based Assay; set-up: species or system human; conditions: Homo sapiens
Method in brief: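 BEAS-2B cells treated 24 h with compound; NQO1 mRNA measured by one-step TaqMan RT-PCR on crude lysates, normalised to beta actin by ΔΔCT. Fold increase over 0.1% DMSO vehicle; EC50 from four-parameter logistic fit.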

[3] = BEAS-2B cells, compound for 24 h, increase in NQO1 mRNA compared to vehicle (0.1% DMSO) control, read-out: EC50

T1 sequence (Q14145 321-609): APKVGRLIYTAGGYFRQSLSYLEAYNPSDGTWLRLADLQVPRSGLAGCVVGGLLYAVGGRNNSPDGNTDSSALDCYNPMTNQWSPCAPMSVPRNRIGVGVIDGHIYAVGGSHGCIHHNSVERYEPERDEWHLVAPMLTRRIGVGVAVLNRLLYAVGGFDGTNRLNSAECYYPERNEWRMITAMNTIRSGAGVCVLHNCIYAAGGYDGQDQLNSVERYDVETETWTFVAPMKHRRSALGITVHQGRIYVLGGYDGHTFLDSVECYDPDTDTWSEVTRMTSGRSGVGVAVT

Row | SMILES | IC50 [1] | EC50 [2, 3] | EC50 ([2]; BEAS-2B, 24 h)
1 | CNC(=O)N1CCCC[C@H]1C(=O)N1CCc2c(Cl)ccc(OCc3nnn(C)c3C(F)F)c2[C@H]1CN1CCCC1=O [Example 79, (S)-2-((S)-5-chloro-8-((5-(difluoromethyl)-1-methyl-1H-1,2,3-triazol-4-yl)methoxy)-1-((2-oxopyrrolidin-1-yl)methyl)-1,2,3,4-tetrahydroisoquinoline-2-carbonyl)-N-methylpiperidine-1-carboxamide] | 14 nM | 336 nM | –
2 | CNC(=O)[C@H]1CCCC[C@H]1C(=O)N1CCc2c(Cl)ccc(OCc3nnn(C)c3C(F)F)c2[C@H]1CN1Cc2ccccc2C1=O [Example 76, (1S,2R)-2-((S)-5-chloro-8-((5-(difluoromethyl)-1-methyl-1H-1,2,3-triazol-4-yl)methoxy)-1-((1-oxoisoindolin-2-yl)methyl)-1,2,3,4-tetrahydroisoquinoline-2-carbonyl)-N-methylcyclohexane-1-carboxamide] | 11 nM | 166 nM | –
3 | CNC(=O)[C@H]1CCCC[C@H]1C(=O)N1CCc2c(Cl)ccc(OCc3cn4cccnc4n3)c2[C@H]1CN1CCCC1=O [Example 75, (1S,2R)-2-((S)-5-chloro-8-(imidazo[1,2-a]pyrimidin-2-ylmethoxy)-1-((2-oxopyrrolidin-1-yl)methyl)-1,2,3,4-tetrahydroisoquinoline-2-carbonyl)-N-methylcyclohexane-1-carboxamide] | 73 nM | 2170 nM | –
4 | CNC(=O)[C@H]1CCCC[C@H]1C(=O)N1CCc2c(Cl)ccc(OCc3noc4ccccc34)c2[C@H]1CN1CCCC1=O [Example 52, (1S,2R)-2-((S)-8-(benzo[d]isoxazol-3-ylmethoxy)-5-chloro-1-((2-oxopyrrolidin-1-yl)methyl)-1,2,3,4-tetrahydroisoquinoline-2-carbonyl)-N-methylcyclohexane-1-carboxamide] | 38 nM | 285 nM | –
5 | CCNC(=O)[C@H]1CCCC[C@H]1C(=O)N1CCc2cccc(O[C@H]3CCN(C(=O)c4cncs4)C3)c2[C@H]1CN1C(=O)c2ccccc2C1=O [Example 42, (1S,2R)-2-((S)-1-((1,3-dioxoisoindolin-2-yl)methyl)-8-(((S)-1-(thiazole-5-carbonyl)pyrrolidin-3-yl)oxy)-1,2,3,4-tetrahydroisoquinoline-2-carbonyl)-N-ethylcyclohexane-1-carboxamide] | 53 nM | 580 nM | –
6 | Cn1nnc(COc2ccc(Cl)c3c2[C@@H](CN2CCCC2=O)N(C(=O)[C@@H]2CCCCN2C(=O)C(F)F)CC3)c1C(F)F [Example 84] | 161 nM | – | 1530 nM
7 | CNC(=O)[C@H]1CCCC[C@H]1C(=O)N1CCc2c(Cl)ccc(OCc3cnc4c(c3)ncn4C)c2[C@H]1CN1CCCC1=O [Example 68, (1S,2R)-2-((S)-5-chloro-8-((3-methyl-3H-imidazo[4,5-b]pyridin-6-yl)methoxy)-1-((2-oxopyrrolidin-1-yl)methyl)-1,2,3,4-tetrahydroisoquinoline-2-carbonyl)-N-methylcyclohexane-1-carboxamide] | 13 nM | 145 nM | –
8 | CNC(=O)[C@H]1CCCC[C@H]1C(=O)N1CCc2c(Cl)ccc(OCc3cnccn3)c2[C@H]1CN1CCCC1=O [Example 62, (1S,2R)-2-((S)-5-chloro-1-((2-oxopyrrolidin-1-yl)methyl)-8-(pyrazin-2-ylmethoxy)-1,2,3,4-tetrahydroisoquinoline-2-carbonyl)-N-methylcyclohexane-1-carboxamide] | 82 nM | 1460 nM | –
9 | CNC(=O)N1CCC[C@H]1C(=O)N1CCc2c(Cl)ccc(OCc3nnn(C)c3C(F)F)c2[C@H]1CN1CCCC1=O [Example 67, (S)-2-((S)-5-chloro-8-((5-(difluoromethyl)-1-methyl-1H-1,2,3-triazol-4-yl)methoxy)-1-((2-oxopyrrolidin-1-yl)methyl)-1,2,3,4-tetrahydroisoquinoline-2-carbonyl)-N-methylpyrrolidine-1-carboxamide] | 29 nM | – | 1360 nM
10 | CNC(=O)N1CCOC[C@H]1C(=O)N1CCc2c(Cl)ccc(OCc3nnn(C)c3C(F)F)c2[C@H]1CN1CCCC1=O [Example 87, (S)-3-((S)-5-chloro-8-((5-(difluoromethyl)-1-methyl-1H-1,2,3-triazol-4-yl)methoxy)-1-((2-oxopyrrolidin-1-yl)methyl)-1,2,3,4-tetrahydroisoquinoline-2-carbonyl)-N-methylmorpholine-4-carboxamide] | 39 nM | 4130 nM | –

More lines, main results first:

Row | IC50 [1] | SMILES | EC50 [2, 3] | EC50 ([2]; BEAS-2B, 24 h)
11 | 7.1 nM | CNC(=O)[C@@]1(C)CCCC[C@H]1C(=O)N1CCc2c(Cl)ccc(OCc3nnn(C)c3C3CC3)c2[C@H]1CN1CC2(CC2)CC1=O [Example 103, (1S,2R)-2-((S)-5-chloro-8-((5-cyclopropyl-1-methyl-1H-1,2,3-triazol-4-yl)methoxy)-1-((6-oxo-5-azaspiro[2.4]heptan-5-yl)methyl)-1,2,3,4-tetrahydroisoquinoline-2-carbonyl)-N,1-dimethylcyclohexane-1-carboxamide] | 57 nM | –
12 | 7.3 nM | CNC(=O)[C@@]1(C)CCCC[C@H]1C(=O)N1CCc2c(Cl)cc(F)c(OCc3nnn(C)c3C(F)F)c2[C@H]1CN1CCOCC1=O [Example 108, (1S,2R)-2-((S)-5-chloro-8-((5-(difluoromethyl)-1-methyl-1H-1,2,3-triazol-4-yl)methoxy)-7-fluoro-1-((3-oxomorpholino)methyl)-1,2,3,4-tetrahydroisoquinoline-2-carbonyl)-N,1-dimethylcyclohexane-1-carboxamide] | 654 nM | –
13 | 7.2 nM | C[C@]1(C(N)=O)CCCC[C@H]1C(=O)N1CCc2c(Cl)cc(F)c(OCc3nnn4c3CCCC4)c2[C@H]1CN1CC2(CC2)CC1=O [Example 111, (1S,2R)-2-((S)-5-chloro-7-fluoro-1-((6-oxo-5-azaspiro[2.4]heptan-5-yl)methyl)-8-((4,5,6,7-tetrahydro-[1,2,3]triazolo[1,5-a]pyridin-3-yl)methoxy)-1,2,3,4-tetrahydroisoquinoline-2-carbonyl)-1-methylcyclohexane-1-carboxamide] | 30 nM | –
14 | 11 nM | CNC(=O)[C@@]1(C)CCCC[C@H]1C(=O)N1CCc2c(Cl)ccc(OCc3cn(C)nn3)c2[C@H]1CN1C[C@H](C)CC1=O [Example 104, (1S,2R)-2-((S)-5-chloro-8-((1-methyl-1H-1,2,3-triazol-4-yl)methoxy)-1-(((R)-4-methyl-2-oxopyrrolidin-1-yl)methyl)-1,2,3,4-tetrahydroisoquinoline-2-carbonyl)-N,1-dimethylcyclohexane-1-carboxamide] | 784 nM | –
15 | 7.5 nM | CNC(=O)[C@@]1(C)CCCC[C@H]1C(=O)N1CCc2c(Cl)cc(F)c(OCc3nnn(C)c3C(F)F)c2[C@H]1CN1CCCC1=O [Example 109, (1S,2R)-2-((S)-5-chloro-8-((5-(difluoromethyl)-1-methyl-1H-1,2,3-triazol-4-yl)methoxy)-7-fluoro-1-((2-oxopyrrolidin-1-yl)methyl)-1,2,3,4-tetrahydroisoquinoline-2-carbonyl)-N,1-dimethylcyclohexane-1-carboxamide] | 140 nM | –
16 | 7.4 nM | CNC(=O)[C@@]1(C)CCCC[C@H]1C(=O)N1CCc2c(Cl)ccc(OCc3nnn(C)c3C3CC3)c2[C@H]1CN1CCCC1=O [Example 99, (1S,2R)-2-((S)-5-chloro-8-((5-cyclopropyl-1-methyl-1H-1,2,3-triazol-4-yl)methoxy)-1-((2-oxopyrrolidin-1-yl)methyl)-1,2,3,4-tetrahydroisoquinoline-2-carbonyl)-N,1-dimethylcyclohexane-1-carboxamide] | 109 nM | –
17 | 7.9 nM | CNC(=O)[C@@]1(C)CCCC[C@H]1C(=O)N1CCc2c(Cl)ccc(OCc3nnn(C)c3C)c2[C@H]1CN1CCCC1=O [Example 90, (1S,2R)-2-((S)-5-chloro-8-((1,5-dimethyl-1H-1,2,3-triazol-4-yl)methoxy)-1-((2-oxopyrrolidin-1-yl)methyl)-1,2,3,4-tetrahydroisoquinoline-2-carbonyl)-N,1-dimethylcyclohexane-1-carboxamide] | 94 nM | –
18 | 19 nM | CNC(=O)N1CCC[C@H]1C(=O)N1CCc2c(Cl)ccc(OCc3cn(C)nn3)c2[C@H]1CN1CCCC1=O [Example 89, (S)-2-((S)-5-chloro-8-((1-methyl-1H-1,2,3-triazol-4-yl)methoxy)-1-((2-oxopyrrolidin-1-yl)methyl)-1,2,3,4-tetrahydroisoquinoline-2-carbonyl)-N-methylpyrrolidine-1-carboxamide] | 8720 nM | –
19 | 6.7 nM | CNC(=O)[C@@]1(C)CCCC[C@H]1C(=O)N1CCc2c(Cl)cc(F)c(OCc3nnn(C)c3C(F)F)c2[C@H]1CN1CC2(CC2)CC1=O [Example 106, (1S,2R)-2-((S)-5-chloro-8-((5-(difluoromethyl)-1-methyl-1H-1,2,3-triazol-4-yl)methoxy)-7-fluoro-1-((6-oxo-5-azaspiro[2.4]heptan-5-yl)methyl)-1,2,3,4-tetrahydroisoquinoline-2-carbonyl)-N,1-dimethylcyclohexane-1-carboxamide] | 25 nM | –
20 | 9.8 nM | CNC(=O)[C@@]1(C)CCCC[C@H]1C(=O)N1CCc2c(Cl)ccc(OCc3nnn(C)c3C(F)(F)F)c2[C@H]1CN1CCCC1=O [Example 91, (1S,2R)-2-((S)-5-chloro-8-((1-methyl-5-(trifluoromethyl)-1H-1,2,3-triazol-4-yl)methoxy)-1-((2-oxopyrrolidin-1-yl)methyl)-1,2,3,4-tetrahydroisoquinoline-2-carbonyl)-N,1-dimethylcyclohexane-1-carboxamide] | 607 nM | –
